Assay results as given in US7297551B2, “Recombinant proteins and peptides for endotoxin biosensors, endotoxin removal, and anti-microbial and anti-endotoxin therapeutics” (priority 1998, dated 2007).
Marks after values point to notes of the source that are not given here. Ends that are not written are not given here. Peptide text beside a SMILES is read from it.

B1: rFCEE: truncated recombinant Factor C from pHILD2/CrFC21EE, amino acids 1-766, 90 kDa, with endotoxin-binding domain (protein, listed as Carcinoscorpius rotundicauda)
chain: MVLASFLVSGLVLGLLAQKMRPVQSKGVDLGLCDETRFECKCGDPGYVFNIPVKQCTYFYRWRPYCKPCDDLEAKDICPKYKRCQECKAGLDSCVTCPPNKYGTWCSGECQCKNGGICDQRTGACACRDRYEGVHCEILKGCPLLPSDSQVQEVRNPPDNPQTIDYSCSPGFKLKGMARISCLPNGQWSNFPPKCIRECAMVSSPEHGKVNALSGDMIEGATLRFSCDSPYYLIGQETLTCQGNGQWNGQIPQCKNLVFCPDLDPVNHAEHKVKIGVEQKYGQFPQGTEVTYTCSGNYFLMGFDTLKCNPDGSWSGSQPSCVKVADREVDCDSKAVDFLDDVGEPVRIHCPAGCSLTAGTVWGTAIYHELSSVCRAAIHAGKLPNSGGAVHVVNNGPYSDFLGSDLNGIKSEELKSLARSFRFDYVRSSTAGKSGCPDGWFEVDENCVYVTSKQRAWERAQGVCTNMAARLAVLDKDVIPNSLTETLRGKGLTTTWIGLHRLDAEKPFIWELMDRSNVVLNDNLTFWASGEPGNETNCVYMDIQDQLQSVWKTKSCFQPSSFACMMDLSDRNKAKCDDPGSLENGHATLHGQSIDGFYAGSSIRYSCEVLHYLSGTETVTCTTNGTWSAPKPRCIKVITCQNPPVPSYGSVEIKPPSRTNSISRVGSPFLRLPRLPLPLARAAKPPPKPRSSQPSTVDLASKVKLPEGHYRVGSRAIYTCESRYYELLGSQGRRCDSNGNWSGRPASCIPVCGRSDSPRSPFIWNG

Legend:
Human erythrocytes = test: Hemolysis assay, human erythrocytes; format: cell-based; conditions: 100 μg/ml
Protocol: Human and rabbit erythrocytes were both used to test the hemolytic activities of the peptides. Whole blood was collected in heparinized sterile syringe, transferred to sterile borosilicate tube and centrifuged at 1200 g for 5 minutes at 4° C. The supernatant including the leukocytes above the erythrocyte pellet was discarded. The erythrocytes were washed 3 times using three volumes of prechilled pyrogen-free saline (PFS). An erythrocyte suspension at 0.4% was prepared for the hemolysis assay. Serial two-fold dilutions of the peptides was prepared in PFS and 100 μl aliquots were added to equal volumes of 0.4% erythrocyte solution in a 96-well microtiter plate (Nunclon™ Δ surface, Nunc) to give final peptide concentrations ranging from 6 to 100 μg/ml. The mixtures were incubated at 37° C. for 1 h. The intact erythrocytes were then pelleted by centrifuging at 1000 g for 5 min. One hundred μl of the supernatant was transferred to a new 96-well microtiter plate and the amount of hemoglobin released into the supernatant was determined by reading the absorbance at 414 nm using a SPECTRAmax™ 340 plate reader with SOFTmax PRO™ version 1.2.0. A positive control with 100 μl of 0.4% erythrocyte lysed in 1% Triton-X 100 was taken as 100% lysis. The negative control was the erythrocytes in PFS alone, which gave minimal lysis. This was taken as 0%.

THP-1 monocytes = tested on: THP-1 monocytes
Protocol: Two×10^4 THP-1 monocytes in 50 μl of RPMI 1640 were mixed in a microtitre plate with 50 μl of increasing amount of 2-fold serial dilutions of SSCrFCES (0.004-4.0 mg/ml in PBS) and incubated for 60 min at 37° C. To determine cytotoxicity induced by the SSCrFCES, 20 μl of CellTiter96™ AQueous One Solution Reagent (Promega) was added into each well for 90 min at 37° C. [3-(4,5-dimethylthiazol-2-yl)-5-(3-carboxymethoxyphenyl)-2-(4-sulfophenyl)-2H-tetrazolium (MTS) is bioreduced by metabolically active cells into a colored formazan product that is soluble in tissue culture medium (27, 28). For detection, the absorbance was measured at 490 nm. To determine the ratio of cell lysis induced by SSCrFCES, two controls were used. Complete lysis (100%) was achieved by incubating cells in phosphate buffer saline containing 0.2% Tween-20 instead of medium only. This absorbance value corresponded to the background, as those cells could not metabolize MTS. The second control representing 0% lysis was determined by incubating cells in medium only. […] The experiment was done in triplicate.

P. aeruginosa ATCC 27853 = test: Killing rate assay; format: cell-based, Pseudomonas aeruginosa; conditions: peptides at 0.06 μg/ml, initial 10^9 cfu/ml
Text: The killing rate assay was adapted from the MBC test above, with different contact time of peptides with the bacteria arrested at regular intervals and plated for colony count. An initial density of 10^9 cfu/ml was used. […] This is one of the important features of an effective therapeutic agent.

[1] = Protection of galactosamine-sensitized mice from LPS-induced lethality; format: in vivo, C57BL/6J mice; conditions: 75 μg peptide, 2 ng LPS pre-incubated with peptide 30 minutes
Protocol: The anti-endotoxin potency of SSCrFCES was investigated in C57BL/6J mice. Mice are typically resistant to endotoxin. However, the sensitivity of mice to endotoxin can be enhanced >1,000-fold by co-injection with a liver-specific inhibitor, galactosamine (31). […] […] Lethality was observed over 3 days after injection. Statistical analysis were performed using the Kaplan-Meier test (32) and log rank pairwise test.

P. aeruginosa = test: Microbicidal concentration (MBC) assay; format: cell-based, Pseudomonas aeruginosa; conditions: MBC
Protocol: Test strains cultured on Mueller-Hinton agar (MHA, Becton Dickinson, USA) were inoculated into 10 ml Mueller-Hinton broth (MHB, Becton Dickinson, USA) and grown overnight at 37° C. in a shaker incubator (Model 4536, Forma Scientific, Inc., USA) at 230 rpm. Overnight broth cultures were diluted to give a final cell density of 10^5 colony forming units/ml (cfu/ml). One hundred microliters of the bacterial suspension was dispensed into sterile polypropylene 8-strip PCR-tubes (Quality Scientific Plastics, USA). Eleven microliters of serially diluted sushi peptides, ranging in final concentrations of 0.03-4 μg/ml, were then added. The peptides were constituted at 10 times the required test concentrations in 0.01% acetic acid and 0.2% bovine serum albumin (BSA). Positive controls were cultures without test peptides. Uninoculated MHB was used as negative control. All tests were carried out in triplicate.
Cultures were incubated at 37° C. for 18-24 h, with the PCR-tubes held in horizontal position and shaken at 230 rpm. Cell counts were determined by standard drop-count method. The killing efficiency for the four sushi peptides were calculated based on standard drop-count method.

Escherichia coli = conditions: time-kill kinetics tested on Escherichia coli; cited from earlier work
[2] = tested on: the various bacteria used; test: Bacteriostatic activity in in vitro cultures, the various bacteria used; format: cell-based; conditions: crude full-length rFC; Sephadex G-100 enriched truncates
Protocol: (§1) The bacteria used for the assay were Escherichia coli ATCC#25922, Salmonella typhimurium ATCC#14028, Pseudomonas aeruginosa ATCC#27853, Klebsiella pneumoniae ATCC#13883 and […]. A colony of each Gram-negative bacterium was inoculated into nutrient broth (Gibco, BRL) and grown at 37° C. until it reached the logarithmic phase of growth. The culture was diluted with nutrient broth to give 1-5×10^5 cells/ml. Aliquots of 2 ml culture were incubated with 1 mg rFC/ml of culture. Incubation was carried out at 37° C. At time intervals of 0, 2, 4, 6, and 24 h, the bacterial culture was vortexed to break up any agglutinated clumps. After vortexing, each culture was examined under the microscope to ensure homogeneity of bacteria. The culture was serially diluted with 0.85% saline, plated on nutrient agar (Oxoid) and incubated overnight at 37° C. for colony counting.

[3] = tested on: Escherichia coli ATCC#25922; test: Bacteriostatic activity in in vitro culture, E. coli; format: cell-based; conditions: within 2 h of incubation
Protocol: as §1

[4] = Competition between rFC and CAL Factor C for LPS (fluorimetric assay); format: biochemical; conditions: Biomax-50 enriched, 100 μg
Protocol: Carcinoscorpius amoebocyte lysate (CAL) containing native Factor C was used in an assay in which rFC competed with CAL Factor C for LPS. Because the rFC produced in P. pastoris lacks serine protease activity, the competition can be monitored by measuring the reduced enzymatic activity of CAL in a fluorimetric assay. Mixtures of 100 μl each of increasing concentrations of LPS or rFC, in fluorimetric assay buffer (50 mM Tris HCl pH 8, containing 0.1 M NaCl and 0.01 M CaCl2) were incubated at 37° C. for 1 h. Aliquots of 20 μg CAL were added to each mixture and the total volumes were made up to 2 ml with fluorimetric assay buffer. The reaction was continued at 37° C. for 1 h and the fluorimetric assay protocol (64) was followed. This involved the addition of 15 μl of 2 mM fluorimetric substrate N-t-Boc-Val-Pro-Arg-7-amido-4-methylcoumarin (Sigma) and incubation at 37° C. for 30 min. The reaction was terminated by the addition of 0.1 ml of glacial acetic acid (Merck). The product, amino methylcoumarin, was measured in fluorescence units (FU) on a Luminescence Spectrometer LS-5 (Perkin-Elmer) with excitation light at 380 nm and emission at 460 nm.
The percentage competition by rFC of the native Factor C enzyme activity of CAL was calculated based on comparison of enzyme activity with the negative control of pHILD2/151. […]
[formula] where FU represents fluorescence units.

[5] = Modified Western blot LPS-binding assay of rFC; set-up: species or system E. coli; conditions: 300 μg protein per LPS/lipid A strip
Protocol: LPS from E. coli 055:B5 (Sigma) was reconstituted to 2 μg/μl, and diphosphoryl lipid A from E. coli K12, D31m4 LPS (List Biologicals, Inc., USA) was made up to 1 μg/μl. The LPS-binding assay was based on modifications of earlier described protocols (45,61). Briefly, 10 μg aliquots of LPS/lipid A were electrophoresed on a denaturing 15% SDS-polyacrylamide gel and electroblotted onto Immobilon™ PVDF membrane. The membrane was cut into strips and each LPS/lipid A strip was subsequently incubated with 300 μg of proteins containing rFC. Detection of rFC binding to lipid A was accomplished by incubation with anti-Factor C antibody followed by alkaline phosphatase-conjugated secondary goat anti-rabbit antibody (Dako) and BCIP/NBT colorimetric substrate (Moss, Inc., USA).

| Molecule | Haemolytic Activity at 100 μg/ml peptide (hu RBC) % lysis (Human erythrocytes) | Cytotoxicity (Cell lysis) BC50 (THP-1 monocytes) | other results |
| --- | --- | --- | --- |
| HAEHKVKIGVEQKYGQFPQGTEVTYTCSGNYFLM [S3] | 5% |  |  |
| GVSTTVLNIYRGIINLLQLNVKK [S8-vg3] | 100% | 22 µM |  |
| CC[C@H](C)[C@H](NC(=O)[C@H](CCCNC(=N)N)NC(=O)[C@H](C)NC(=O)[C@H](CCSC)NC(=O)CNC(=O)[C@H](CCCCN)NC(=O)[C@H](CC(C)C)NC(=O)[C@H](CCCCN)NC(=O)[C@H](Cc1ccccc1)NC(=O)CN)C(=O)N[C@@H](CO)C(=O)N[C@@H](CS)C(=O)N[C@@H](CC(C)C)C(=O)N1CCC[C@H]1C(=O)N[C@@H](CC(N)=O)C(=O)NCC(=O)N[C@@H](CCC(N)=O)C(=O)N[C@@H](Cc1c[nH]c2ccccc12)C(=O)N[C@@H](CO)C(=O)N[C@@H](CC(N)=O)C(=O)N[C@@H](Cc1ccccc1)C(=O)N1CCC[C@H]1C(=O)N1CCC[C@H]1C(=O)N[C@@H](CCCCN)C(=O)N[C@@H](CS)C(=O)N[C@H](C(=O)N[C@@H](CCCNC(=N)N)C(=O)N[C@@H](CCC(=O)O)C(=O)N[C@@H](CS)C(=O)N[C@@H](C)C(=O)N[C@@H](CCSC)C(=O)N[C@H](C(=O)N[C@@H](CO)C(=O)N[C@@H](CO)C(=O)O)C(C)C)[C@@H](C)CC [S1] (H-GFKLKGMARISCLPNGQWSNFPPKCIRECAMVSS-OH; N-terminus and C-terminus assumed) |  |  | Killing rate (time to achieve MBC90) (P. aeruginosa ATCC 27853): 7 min; Mouse Protection Assay [1]: 22% at 75; Anti-microbial Potency P. aeruginosa MBC90 (P. aeruginosa): 0.03 µg/mL |
| RAEHKVKKIVKQLYGQFRQLTRVTRTCSRFLRRM [S4] | 20% | 3.8 µM |  |
| Magainin II |  |  | Killing rate (Escherichia coli): 60^d min |
| MRKLVLALAKALAKVDKKNL [S6-vg1] | 5% | 26 µM |  |
| HKVKKIVKQLYRAEHKVKKIVKQL [S5] | 0% | 33 µM |  |
| Nisin |  |  | Killing rate (Escherichia coli): 60^d min |
| IYRGIINLIQLAVKKAQNVYQM [S9-vg4] | 75% | 35 µM |  |
| Ranalexin |  |  | Killing rate (Escherichia coli): >60^d min |
| LLNAVPHKATHAALKFLKEK [S7-vg2] | 5% | 400 µM |  |
| B1 |  |  | inhibitory effect on growth of the various bacteria [2]: did not have any inhibitory effect; agglutination of E. coli [3]: Agglutination; effect on the enzymatic activity of CAL Factor C [4]: markedly lower competitive effect; binding to 7-20 kDa lipid A bands [5]: able to bind specifically to lipid A moiety of LPS, albeit less strongly |
